Results on 2 compounds are retold here after article PMC5549732 (PLoS ONE, 2017).

The nature of data set [1]: Plasma pharmacokinetics of the probes, fluorescence microplate assay. The data set is classed as in vivo. Particulars: CD-1 mice; 2 nmoles IV; plasma fluorescence on a microplate reader. As to the method:
(§1) Selectivity was assessed in vitro using HT-29 human colorectal cells; fluorescence signal on BRS-680-labeled cells was ~7X greater than either the scrambled peptide version of the probe or when 100X unlabeled bombesin peptide was used to block labeling (S2 Fig) as assessed by both flow cytometry and fluorescence microscopy. […] Tumor tissue localization co-localized well with ex vivo anti-bombesin receptor staining (S5 Fig).
Selectivity was assessed in vitro by flow cytometry and fluorescence microscopy using HT-29 human colorectal cells; fluorescence signal on TfV-750-labeled cells was ~15X greater than when 100 μM unlabeled recombinant transferrin was used to block labeling (S7 Fig). […] Animals were bled at indicated times, and plasma fluorescence was determined using a microplate assay. […]
Blood samples were obtained via terminal cardiac puncture and plasma fluorescence was quantified on a fluorescence plate reader. […] Epifluorescence levels were determined using TrueQuant™ FMT software and are represented as Mean Fluorescence to compensate for differences in tissue size. […]
B: Quantification of tissue epifluorescence images, with data inset representing plasma pharmacokinetics assessed from serial bleeds of mice measured on a microplate fluorimeter. […]

Another data set relates to HT-29 tumors. As to the kind of experiment: Biodistribution and in vivo imaging kinetics of the probes in HT-29 tumor-bearing mice. Details: species or system nu/nu mice. As to the method:
as §1
Selectivity was assessed in vitro by flow cytometry and fluorescence microscopy using HT-29 human colorectal cells; fluorescence signal on TfV-750-labeled cells was ~15X greater than when 100 μM unlabeled recombinant transferrin was used to block labeling (S7 Fig). […] Animals were bled at indicated times, and plasma fluorescence was determined using a microplate assay. […] The probe has good tissue penetration into tumors, as its binding pattern in tumor sections (using a 645 nm FLI surrogate to improve microscopy imaging) correlates well with the transferrin receptor expression on cancer cells and is not associated with the tumor vasculature (S10 Fig).
Blood samples were obtained via terminal cardiac puncture and plasma fluorescence was quantified on a fluorescence plate reader. […] Mice were sacrificed 24 hours post-injection and tissues were excised, rinsed with PBS, and imaged on the FMT 4000 (PerkinElmer, Waltham, MA), in epifluorescence mode. Epifluorescence levels were determined using TrueQuant™ FMT software and are represented as Mean Fluorescence to compensate for differences in tissue size. (TIF) Click here for additional data file.
Noninvasive fluorescence tomographic imaging datasets were used to quantify kinetic fluorescence changes in the tumors, heart, and liver. An optimal imaging time point of 24h was determined based on specificity of tumor signal and tumor’s signal-to-background ratio. (TIF) Click here for additional data file.
B: Quantification of tissue epifluorescence images, with data inset representing plasma pharmacokinetics assessed from serial bleeds of mice measured on a microplate fluorimeter. (TIF) Click here for additional data file.
Elevated TfV-750 signals in the liver and tumor indicate higher iron metabolism in these tissues. (TIF) Click here for additional data file.

Data set [2] has as its system HCT116-luc2 tumors. As to the kind of experiment: BLI of firefly luciferase activity (tumor viability) in HCT116-luc2 xenografts. The data set is classed as in vivo, nu/nu mice. The method, then:
Optical BLI and FLI were performed using the IVIS® SpectrumCT, which is capable of imaging multiple mice simultaneously (up to 5 mice). To generate BLI signals, the tumor-bearing mice received IP injections of 75 mg/kg of D-luciferin (potassium salt, PerkinElmer Inc.) and were placed into the imager for sequential image acquisitions (settings: FOV = D, Binning = 16, F/Stop = 1, Open filter, 2 min delay between each acquisition) under 1–2% of isoflurane anesthesia. Maximal bioluminescence output for each tumor was determined by sequentially acquiring a BLI image every two minutes for up to 16 min. Typical peak imaging time for the HCT116-luc2 subcutaneous model was approximately 10 min, and BLI images are represented in units of radiance (p/sec/cm^2/sr).
(§2) BLI and FLI images were analyzed using the Living Image software (version 4.4 for Windows, PerkinElmer Inc.). Tumor BLI and FLI signals were quantified using the region of interest (ROI) tools, and the total optical signals were calculated as total flux (photon counts/sec) and total radiant efficiency [(p/s)/(μW/cm^2)], respectively. For greater accuracy, all FLI data was corrected for background levels based on specific measurements as described in the figure legends. All PET images were represented as standard uptake value (SUV) using the VivoQuant 3.0 software and tumor-specific ^18F-FDG uptake levels were also calculated using SUVtotal. […] For each treatment group, we calculated relative tracer uptake in tumors using the day 0 uptake level as 100%. For statistical analysis, we used the GraphPad Prism software (version 6.0 for Windows, La Jolla, CA). Data are presented as the mean ± standard error of the mean (s.e.m.). Statistical analysis was conducted using ANOVA or Student’s t-test, as indicated. P < 0.05 was the cutoff for being considered statistically significant.

In data set [3] the test system is HCT116-luc2 tumors. The data set can be described thus: 18F-FDG microPET imaging of tumor glucose uptake. The data set is classed as in vivo, nu/nu mice. To be noted: sorafenib 40 mg/kg daily oral gavage; days 2 and 3 post-treatment; n = 5 per group. The method, then:
We also performed microPET imaging using ^18F-FDG as a tracer for detecting changes in tumor glucose uptake with or without treatment. Images were acquired using the G8 PET/CT system (PerkinElmer Inc.). For each mouse, 100 μCi of ^18F-FDG (PETNET Solutions Inc., Malvern PA) was injected intravenously (IV), and all mice were kept warm and maintained under 1.5% isoflurane gas anesthesia for 1 hour for tracer uptake. Subsequently, the mice were imaged with a standard 10 min static F-18 imaging protocol. The G8 PET/CT system automatically performed image reconstruction after acquisition and provided 3D tomography imaging in the DICOM format. We were able to image the same cohorts (n = 5) throughout the course of study since ^18F has a relative short decay half-life (~110 min). […]
(§3) BLI and FLI images were analyzed using the Living Image software (version 4.4 for Windows, PerkinElmer Inc.). Tumor BLI and FLI signals were quantified using the region of interest (ROI) tools, and the total optical signals were calculated as total flux (photon counts/sec) and total radiant efficiency [(p/s)/(μW/cm^2)], respectively. […] All PET images were represented as standard uptake value (SUV) using the VivoQuant 3.0 software and tumor-specific ^18F-FDG uptake levels were also calculated using SUVtotal. […] For each treatment group, we calculated relative tracer uptake in tumors using the day 0 uptake level as 100%. […]

Data set [4] deals with HCT116-luc2 tumors. The data set can be described thus: BRS-680 fluorescence imaging (FLI) of tumor bombesin receptor expression. Format: in vivo, nu/nu mice. To be noted: for inhibition of BRS-680 tumor FLI signal: sorafenib 40 mg/kg daily oral gavage. The method, then:
In addition, the imager is equipped with suitable excitation and emission filter sets for FLI of BRS-680 and TfV-750. Tumor metabolic activities were visualized by IV injection of a mixture of these two NIR imaging agents (2 nmol/mouse each in a total volume of 100 μl of PBS). The agents were injected 16 h prior to FLI imaging in order to allow optimal probe uptake and clearance of unbound probe. For the longitudinal FLI imaging studies, separate cohorts were used for FLI acquisitions on days 1 (n = 10, imaging agents injected on day 0), 2 (n = 10, injected on day 1), and 3 (n = 5, injected on day 2) due to the extended time required for probe washout. […] Fluorescent signal is represented as radiant efficiency [(p/sec/cm^2/sr)/(μW/cm^2)] or normalized fluorescent signal where appropriate.
as §2, with “SUVtotal. Several similar imaging experiments were performed using this particular HCT116-luc2 tumor model to visualize treatment responses to sorafenib.” for “SUVtotal.”
Besides interfering with glycolytic activity, we believe inhibition of the Ras/Raf/MEK/ERK pathways with sorafenib has a broader, global impact on tumor energy metabolism. […] We wonder if these FLI probes can detect early, yet subtle metabolic disturbances induced by sorafenib treatment prior to the later regression of treated tumors, like we saw with ^18F-FDG PET imaging. […] Separate cohorts were used for FLI acquisitions on days 1, 2, and 3 due to the extended time required for probe washout. Of note, the day 1 cohort was re-injected with probe for imaging on day 10 to assess ultimate treatment efficacy. […]

Data set [5] has as its system HCT116-luc2 tumors. The data set can be described thus: TfV-750 fluorescence imaging (FLI) of tumor transferrin receptor expression. The data set is classed as in vivo, nu/nu mice. The method, then: In addition, the imager is equipped with suitable excitation and emission filter sets for FLI of BRS-680 and TfV-750. Tumor metabolic activities were visualized by IV injection of a mixture of these two NIR imaging agents (2 nmol/mouse each in a total volume of 100 μl of PBS). The agents were injected 16 h prior to FLI imaging in order to allow optimal probe uptake and clearance of unbound probe. For the longitudinal FLI imaging studies, separate cohorts were used for FLI acquisitions on days 1 (n = 10, imaging agents injected on day 0), 2 (n = 10, injected on day 1), and 3 (n = 5, injected on day 2) due to the extended time required for probe washout. […]
as §3

Data set [6] relates to HCT116-luc2 tumors. The data set can be described thus: H&E histology of tumor tissue sections. The data set is classed as in vivo, nu/nu mice. Particulars: sorafenib 120 mg/kg, days 0-4 and 7-9; day 9. The method, then:
Tumor tissues were fixed in 10% neutral buffered formalin, followed by routine process and embedment in paraffin. Tissue sections (5 μm) were prepared on electrostatically charged glass slides and then baked at 60°C overnight. After washing the slides with three washes in xylene, the slides were rehydrated through a series of graded ethanol (100%, 90% and 70%) to water. The prepared slides were then stained with hematoxylin and eosin.
Fig 1 Sorafenib, a tyrosine kinase inhibitor, effectively suppresses HCT116-luc2 tumor growth. Nude mice bearing subcutaneous tumors on the flanks were treated with vehicle or with 120 mg/kg of sorafenib on days 0–4 and days 7–9 via oral gavage. A: Longitudinal tumor volume measurements of subcutaneous HCT116-luc2 tumors (***p < 0.0001, n = 5 per group, two-way ANOVA, mean and s.e.m., representative of three studies) B: H&E staining of tumor tissue sections harvested from the vehicle and sorafenib-treated (120 mg/kg) tumors on day 9. […] Bar: 50 μm.

The test system of data set [7] is HCT116-luc2 subcutaneous xenografts. The data set can be described thus: Caliper tumor volume measurement of subcutaneous HCT116-luc2 xenografts.
Description: Specific pathogen-free nu/nu (Crl:NU-Fox1^nu, 6–8 weeks old) and CD-1 (Crl:CD1[ICR]) mice were purchased from Charles River Laboratories (Wilmington, MA). Mice were housed in a controlled environment (72°F; 12:12-h light-dark cycle) under specific-pathogen free conditions with water and food provided ad libitum. To induce tumor growth, 2.5 x10^6 of HCT116-luc2 cells were subcutaneously injected on the right flank of a nude mouse. Two weeks after cancer cell inoculation, when the tumor volume reached an appropriate size (measured by caliper and calculated by the formula 0.5 x length x width^2), animals were randomized into vehicle or different sorafenib treatment groups as indicated. Sorafenib was prepared in water containing 6.2% of ethanol and 6.2% of Kolliphor EL (Sigma-Aldrich, St. Louis, MO). The treatment was given daily 5 times a week by oral gavage at 15 μl per gram of body weight.
We initiated the treatment when the average HCT116-luc2 tumor size for each group reached ~180 mm^3 in volume (day 0). The drug was given daily via oral gavage at a dosage of 120 mg/kg from days 0 to 4 and from days 7 to 9.
In this set of studies (Fig 2), treatments were initiated when the average group HCT116-luc2 tumor size reached ~100 mm^3 in volume. […] The drug was given daily, from days 0 to 4 and from days 7 to 11. In addition to the conventional tumor volume measurements by caliper, we performed BLI of firefly luciferase activity to access tumor viability on the days indicated.
Where [8] appears, read: HT-29 tumor-bearing mice, 2 nmol/mouse IV.
Where [9] appears, read: HT-29 tumor-bearing nu/nu mice, 2 nmol IV, tissues excised 24 h post-injection, epifluorescence.
Where [10] appears, read: sorafenib 40 mg/kg, first 3 days of treatment.
[11] abbreviates: sorafenib 40 mg/kg, within 2 days of treatment, n = 5 per group.
[12] abbreviates: sorafenib 120 mg/kg daily for 8 days, imaged day 9, stated for both FLI probes.

Several values for one entry are separate records, joined by “and”; a condition that tells them apart may be missing. Equal values may be shown once.

Turning to “TfV-750: PEGylated recombinant transferrin with a NIR fluorescent reporter (ex/em 750/770 nm); transferrin receptor imaging probe”, the “circulation half-life (plasma t1/2)” value in data set [1] is listed as ~ 9 h. In the data set with HT-29 tumors (setting [8]), the “optimal time for in vivo tumor imaging post injection” value was 6 to 24 h and the “time to (near) complete clearance from the system” value is on record as “about 4 days”. Further, in the data set on HT-29 tumors (setting [9]), the “biodistribution to tumors in collected tissues” value is reported as “good biodistribution to tumors” and the “route of clearance in collected tissues” value is recorded as “efficient clearance via kidney excretion”.

`CNC(=O)c1cc(Oc2ccc(NC(=O)Nc3ccc(Cl)c(C(F)(F)F)c3)cc2)ccn1` [sorafenib, Sorafenib]: in the data set on HCT116-luc2 tumors [2] (setting [10]), the “reduction in BLI signal” value is on record as “no significant reduction”. The “reduction in viability (assessed by BLI)” value in the data set on HCT116-luc2 tumors [2] (setting [11]) is given as “no significant reduction”. Besides, the “BLI and tumor volume results compared with the 120 mg/kg dose” value in the data set with HCT116-luc2 tumors [2] (sorafenib 80 mg/kg daily, days 0-4 and 7-11) was “Comparable results”. Also, the “suppression of tumor viability (BLI)” value in the data set with HCT116-luc2 tumors [2] (sorafenib 120 mg/kg daily, days 0-4 and 7-11, by day 11, n = 5 per group) is ~ 90%. Moreover, in the data set on HCT116-luc2 tumors [2] (sorafenib 120 mg/kg, 2 days after the treatment began, n = 5 per group), the “reduction in tumor BLI signals” value is ~ 40%. Besides, the “inhibition of tumor uptake of 18F-FDG” value in the data set with HCT116-luc2 tumors [3] was 55–60% and 50–60%. The “inhibition of BRS-680 tumor FLI signal” value worked out at 40% in the data set on HCT116-luc2 tumors [4] (day 2, n = 10) and 79% in the data set on HCT116-luc2 tumors [4] (day 3, n = 5). For the same compound, the “inhibition of BRS-680 tumor signal” value with HCT116-luc2 tumors [4] (sorafenib 40 mg/kg, within the 2-3 day window, normalized to vehicle control) is 40–80%. Besides, in the data set with HCT116-luc2 tumors [4] (setting [12]), the “reduction in BRS-680 FLI signal as compared to controls” value is at least 40%. Also, in the data set with HCT116-luc2 tumors [5] (sorafenib 40 mg/kg daily oral gavage, day 3, n = 5), the “inhibition of TfV-750 tumor FLI signal” value was 65% and ~ 70%. For the same compound, the “reduction in TfV-750 FLI signal as compared to controls” value in the data set with HCT116-luc2 tumors [5] (setting [12]) was at least 40%. Also, the “tumor death in H&E stained tumor tissue sections” value in the data set with HCT116-luc2 tumors [6] was “extensive tumor death”. Moreover, the “decrease of overt tumor size” value in data set [7] (sorafenib 40 mg/kg daily, by day 10, PET study cohort, n = 5 per group) is reported as ~ 50%. In addition, the “growth inhibition in comparison with untreated control tumors” value in data set [7] (sorafenib 40 mg/kg, by day 10 or 11, over multiple studies) is recorded as 50–90%. Also, the “reduction in tumor volume” value in data set [7] (setting [10]) is recorded as “no significant reduction”. Further, the “reduction in size (tumor volume)” value in data set [7] (setting [11]) is reported as “no significant reduction”. In addition, the “efficacy against tumor growth by tumor volume, versus vehicle” value in data set [7] (sorafenib 120 mg/kg oral gavage, days 0-4 and 7-9, n = 5 per group) was “clearly demonstrated the drug’s efficacy”. The “change in tumor volume” value in data set [7] (sorafenib 120 mg/kg, day 2, n = 5 per group) is given as “no significant change”.
